Measurements: ChEMBL document CHEMBL5120790, “Secondary Metabolites from Annulohypoxylon sp. and Structural Revision of Emericellins A and B” (2022)

How the values were obtained:
Assay type in all cases: functional
Candida albicans = assay: Antifungal activity against Candida albicans assessed as reduction in microbial growth after 3 days by two-fold dilution method
Bacillus subtilis = assay: Antibacterial activity against Bacillus subtilis assessed as reduction in microbial growth after 24 hrs by two-fold dilution method
Escherichia coli = assay: Antibacterial activity against Escherichia coli assessed as reduction in microbial growth after 24 hrs by two-fold dilution method
Staphylococcus aureus = assay: Antibacterial activity against Staphylococcus aureus assessed as reduction in microbial growth after 24 hrs by two-fold dilution method

## NYSTATIN
Candida albicans; time 3.0 day
  MIC: 1 µg/mL

## COc1cc2c(c(O)c1OC)CO[C@](C)(O)C2=O
Bacillus subtilis
  MIC: > 256 µg/mL
Candida albicans; 72 h, time 3 day
  MIC: 32 µg/mL
Escherichia coli
  MIC: > 256 µg/mL
Staphylococcus aureus
  MIC: > 256 µg/mL

## C/C=C/C[C@H](CO)[C@H](O)[C@H](C)O
Bacillus subtilis
  MIC: > 256 µg/mL
Candida albicans; 72 h, time 3 day
  MIC: 64 µg/mL
Escherichia coli
  MIC: > 256 µg/mL
Staphylococcus aureus
  MIC: > 256 µg/mL

## C[C@@]12CC[C@@](O)(CO)[C@@H](C1)[C@]1(C)CCC[C@]21C
Bacillus subtilis
  MIC: 32 µg/mL
Candida albicans; 72 h, time 3 day
  MIC: > 256 µg/mL
Escherichia coli
  MIC: 64 µg/mL
Staphylococcus aureus
  MIC: 64 µg/mL

## C[C@]12CCC[C@@]1(C)[C@@H]1C[C@@]2(C)[C@H](O)C[C@@]1(O)CO
Bacillus subtilis
  MIC: 16 µg/mL
Candida albicans; 72 h, time 3 day
  MIC: > 256 µg/mL
Escherichia coli
  MIC: 2 µg/mL
Staphylococcus aureus
  MIC: 32 µg/mL

## C[C@H](C[C@@H](O)[C@H](O)C(C)(C)O)[C@H]1CC[C@@](C)(O)[C@@H](O)C1
Bacillus subtilis
  MIC: 64 µg/mL
Candida albicans; 72 h, time 3 day
  MIC: > 256 µg/mL
Escherichia coli
  MIC: 64 µg/mL
Staphylococcus aureus
  MIC: 64 µg/mL

## C[C@@]12CC[C@@](O)(CO)[C@@H](C1)[C@]1(C)C[C@@H](O)C[C@]21C
Bacillus subtilis
  MIC: 32 µg/mL
Candida albicans; 72 h, time 3 day
  MIC: > 256 µg/mL
Escherichia coli
  MIC: 4 µg/mL
Staphylococcus aureus
  MIC: 32 µg/mL

## C[C@@]12CC[C@@](O)(CO)[C@@H](C1)[C@@]1(C)CCC[C@@]21C
Bacillus subtilis
  MIC: 64 µg/mL
Candida albicans; 72 h, time 3 day
  MIC: > 256 µg/mL
Escherichia coli
  MIC: 64 µg/mL
Staphylococcus aureus
  MIC: 64 µg/mL

## NC[C@H]1O[C@H](O[C@H]2[C@H](O)[C@@H](O[C@H]3O[C@H](CO)[C@@H](O)[C@H](N)[C@H]3O)[C@H](N)C[C@@H]2N)[C@H](O)[C@@H](O)[C@@H]1O [KANAMYCIN]
Bacillus subtilis
  MIC: 1 µg/mL
Escherichia coli
  MIC: 1 µg/mL
Staphylococcus aureus
  MIC: 1 µg/mL

## C[C@@]12CC=C(CO)[C@@H](C1)[C@]1(C)CCC[C@]21C
Bacillus subtilis
  MIC: 32 µg/mL
Candida albicans; 72 h, time 3 day
  MIC: > 256 µg/mL
Escherichia coli
  MIC: 64 µg/mL
Staphylococcus aureus
  MIC: 32 µg/mL

## CC[C@H](O)[C@H](O)C[C@H](C)O
Bacillus subtilis
  MIC: > 256 µg/mL
Candida albicans; 72 h, time 3 day
  MIC: 64 µg/mL
Escherichia coli
  MIC: > 256 µg/mL
Staphylococcus aureus
  MIC: > 256 µg/mL
